Reference: ChEMBL document CHEMBL3864133, “Discovery of a Potent and Selective in Vivo Probe (GNE-272) for the Bromodomains of CBP/EP300” (J Med Chem, 2016)
The source made the active and inactive calls. The calls are words filed in the database; no cut-off is given here.

Columns and labels:
[1] = Time at which unbound drug level in SCID beige mouse tumor stays above cellular MYC EC90 at 10 mg/kg, po administered twice daily via gavage as single dose; format: ADME, organism-based; details: in vivo
[2] = Apparent permeability of the compound across apical side to basolateral side in MDCK cells at 10 uM measured after 180 mins by LC-MS/MS analysis; format: ADME, cell-based, Canis lupus familiaris; details: dog
[3] = target: T1, CREB-binding protein/Histone acetyltransferase p300 (Homo sapiens, UniProt Q09472+Q92793); experiment: Inhibition of CBP/EP300 in human MOLM16 cells assessed as suppression of BCL2 expression at 5 uM measured after 4 hrs by RT-PCR analysis relative to DMSO control; format: cell-based
EJM = experiment: Antiproliferative activity against human EJM cells measured after 6 days by CellTiter-Glo assay; format: functional, cell-based
[4] = target: T1, CREB-binding protein/Histone acetyltransferase p300; experiment: Inhibition of CBP/EP300 in human MOLM16 cells assessed as suppression of MYB expression at 5 uM measured after 4 hrs by RT-PCR analysis relative to DMSO control; format: cell-based
THP2 = experiment: Antiproliferative activity against human THP2 cells measured after 6 days by CellTiter-Glo assay; format: functional, cell-based
KMS-11 = experiment: Antiproliferative activity against human KMS11 cells measured after 6 days by CellTiter-Glo assay; format: functional, cell-based
Mus musculus = experiment: Toxicity in SCID beige mouse xenografted with human MOLM16 cells assessed as body weight loss at 12.5 to 50 mg/kg, po BID administered through gavage for 21 days; format: organism-based; details: in vivo
Cytochrome P450 3A4 = Cytochrome P450 3A4 (Homo sapiens, UniProt P08684); experiment: Inhibition of CYP3A4 in human liver microsomes assessed as formation of 6beta-hydroxytestosterone from testosterone measured after 10 mins in presence of NADPH by LC-MS/MS analysis; format: ADME; details: read-out: INH
[5] = target: T1, CREB-binding protein/Histone acetyltransferase p300; experiment: Inhibition of CBP/EP300 in human MOLM16 cells assessed as decrease in MYC expression at 0.1 to 1 uM measured after 4 hrs Western blot analysis; format: cell-based
[6] = target: T1, CREB-binding protein/Histone acetyltransferase p300; experiment: Inhibition of CBP/EP300 in human MOLM16 cells assessed as suppression of CCND1 expression at 5 uM measured after 4 hrs by RT-PCR analysis relative to DMSO control; format: cell-based
[7] = target: T1, CREB-binding protein/Histone acetyltransferase p300; experiment: Inhibition of CBP/EP300 in human HL60 cells assessed as decrease in MYC expression at 5 uM measured after 4 hrs by RT-PCR analysis relative to DMSO control; format: cell-based; details: HL-60

T1 sequence (Q09472 whole entry, looked up): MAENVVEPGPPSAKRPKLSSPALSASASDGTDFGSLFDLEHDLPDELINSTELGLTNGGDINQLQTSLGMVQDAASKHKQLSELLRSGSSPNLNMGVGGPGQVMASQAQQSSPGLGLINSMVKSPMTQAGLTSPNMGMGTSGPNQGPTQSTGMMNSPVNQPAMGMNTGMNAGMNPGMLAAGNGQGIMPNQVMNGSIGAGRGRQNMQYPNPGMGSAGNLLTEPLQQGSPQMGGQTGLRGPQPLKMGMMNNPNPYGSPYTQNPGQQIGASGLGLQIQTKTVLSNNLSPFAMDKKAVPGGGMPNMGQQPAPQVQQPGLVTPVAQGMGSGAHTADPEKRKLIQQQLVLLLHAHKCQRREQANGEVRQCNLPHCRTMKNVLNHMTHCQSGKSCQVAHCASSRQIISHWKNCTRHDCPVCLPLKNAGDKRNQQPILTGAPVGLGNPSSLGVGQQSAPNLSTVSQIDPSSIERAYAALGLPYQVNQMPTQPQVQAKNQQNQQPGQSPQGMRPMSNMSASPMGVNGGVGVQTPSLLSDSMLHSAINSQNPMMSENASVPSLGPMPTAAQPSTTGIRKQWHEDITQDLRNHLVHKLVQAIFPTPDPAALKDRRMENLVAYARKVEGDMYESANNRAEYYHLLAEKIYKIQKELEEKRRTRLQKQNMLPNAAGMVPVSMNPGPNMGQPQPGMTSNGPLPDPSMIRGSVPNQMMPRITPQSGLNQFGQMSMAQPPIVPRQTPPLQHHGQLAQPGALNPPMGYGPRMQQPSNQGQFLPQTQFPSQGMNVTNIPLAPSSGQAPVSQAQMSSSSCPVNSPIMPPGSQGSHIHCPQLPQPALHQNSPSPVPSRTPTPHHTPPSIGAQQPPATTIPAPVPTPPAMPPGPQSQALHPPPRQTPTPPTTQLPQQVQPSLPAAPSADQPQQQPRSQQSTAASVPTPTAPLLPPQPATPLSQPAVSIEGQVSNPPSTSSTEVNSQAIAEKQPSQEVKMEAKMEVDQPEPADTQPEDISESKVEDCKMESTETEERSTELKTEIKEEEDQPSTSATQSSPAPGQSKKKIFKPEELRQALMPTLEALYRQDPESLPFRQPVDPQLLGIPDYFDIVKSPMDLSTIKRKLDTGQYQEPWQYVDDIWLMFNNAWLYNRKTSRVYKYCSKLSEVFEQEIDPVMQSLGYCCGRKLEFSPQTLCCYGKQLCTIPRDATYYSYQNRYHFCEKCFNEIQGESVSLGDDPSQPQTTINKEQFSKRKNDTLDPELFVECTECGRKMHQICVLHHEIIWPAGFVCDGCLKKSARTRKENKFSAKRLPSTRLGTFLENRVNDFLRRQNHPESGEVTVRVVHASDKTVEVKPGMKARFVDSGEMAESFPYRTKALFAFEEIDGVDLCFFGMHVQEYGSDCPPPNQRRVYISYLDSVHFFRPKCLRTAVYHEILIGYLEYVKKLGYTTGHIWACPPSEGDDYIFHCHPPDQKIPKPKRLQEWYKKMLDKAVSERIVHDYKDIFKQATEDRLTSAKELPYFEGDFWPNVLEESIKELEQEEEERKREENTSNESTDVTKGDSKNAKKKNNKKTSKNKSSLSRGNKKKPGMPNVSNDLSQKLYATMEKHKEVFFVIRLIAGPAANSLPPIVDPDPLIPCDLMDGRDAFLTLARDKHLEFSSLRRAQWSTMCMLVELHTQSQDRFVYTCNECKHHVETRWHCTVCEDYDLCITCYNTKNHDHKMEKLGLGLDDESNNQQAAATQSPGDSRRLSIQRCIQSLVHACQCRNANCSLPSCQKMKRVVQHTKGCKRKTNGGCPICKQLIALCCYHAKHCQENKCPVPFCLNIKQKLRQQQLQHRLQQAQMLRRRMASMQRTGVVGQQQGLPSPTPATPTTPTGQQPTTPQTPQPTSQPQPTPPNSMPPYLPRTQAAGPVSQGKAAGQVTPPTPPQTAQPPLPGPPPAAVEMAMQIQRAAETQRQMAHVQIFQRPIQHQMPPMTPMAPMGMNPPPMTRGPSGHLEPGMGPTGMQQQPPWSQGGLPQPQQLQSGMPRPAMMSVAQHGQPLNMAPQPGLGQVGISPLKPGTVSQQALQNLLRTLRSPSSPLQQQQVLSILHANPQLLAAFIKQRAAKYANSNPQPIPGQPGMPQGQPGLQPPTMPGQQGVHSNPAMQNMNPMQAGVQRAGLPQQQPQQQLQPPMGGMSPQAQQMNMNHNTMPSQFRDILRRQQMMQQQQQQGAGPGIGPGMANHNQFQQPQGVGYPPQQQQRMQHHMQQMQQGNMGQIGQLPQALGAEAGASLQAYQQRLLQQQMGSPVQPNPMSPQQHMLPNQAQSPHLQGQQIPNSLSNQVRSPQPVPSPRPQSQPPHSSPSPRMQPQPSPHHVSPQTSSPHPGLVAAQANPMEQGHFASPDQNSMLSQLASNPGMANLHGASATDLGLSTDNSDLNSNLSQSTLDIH
T1 sequence (Q92793 whole entry, looked up): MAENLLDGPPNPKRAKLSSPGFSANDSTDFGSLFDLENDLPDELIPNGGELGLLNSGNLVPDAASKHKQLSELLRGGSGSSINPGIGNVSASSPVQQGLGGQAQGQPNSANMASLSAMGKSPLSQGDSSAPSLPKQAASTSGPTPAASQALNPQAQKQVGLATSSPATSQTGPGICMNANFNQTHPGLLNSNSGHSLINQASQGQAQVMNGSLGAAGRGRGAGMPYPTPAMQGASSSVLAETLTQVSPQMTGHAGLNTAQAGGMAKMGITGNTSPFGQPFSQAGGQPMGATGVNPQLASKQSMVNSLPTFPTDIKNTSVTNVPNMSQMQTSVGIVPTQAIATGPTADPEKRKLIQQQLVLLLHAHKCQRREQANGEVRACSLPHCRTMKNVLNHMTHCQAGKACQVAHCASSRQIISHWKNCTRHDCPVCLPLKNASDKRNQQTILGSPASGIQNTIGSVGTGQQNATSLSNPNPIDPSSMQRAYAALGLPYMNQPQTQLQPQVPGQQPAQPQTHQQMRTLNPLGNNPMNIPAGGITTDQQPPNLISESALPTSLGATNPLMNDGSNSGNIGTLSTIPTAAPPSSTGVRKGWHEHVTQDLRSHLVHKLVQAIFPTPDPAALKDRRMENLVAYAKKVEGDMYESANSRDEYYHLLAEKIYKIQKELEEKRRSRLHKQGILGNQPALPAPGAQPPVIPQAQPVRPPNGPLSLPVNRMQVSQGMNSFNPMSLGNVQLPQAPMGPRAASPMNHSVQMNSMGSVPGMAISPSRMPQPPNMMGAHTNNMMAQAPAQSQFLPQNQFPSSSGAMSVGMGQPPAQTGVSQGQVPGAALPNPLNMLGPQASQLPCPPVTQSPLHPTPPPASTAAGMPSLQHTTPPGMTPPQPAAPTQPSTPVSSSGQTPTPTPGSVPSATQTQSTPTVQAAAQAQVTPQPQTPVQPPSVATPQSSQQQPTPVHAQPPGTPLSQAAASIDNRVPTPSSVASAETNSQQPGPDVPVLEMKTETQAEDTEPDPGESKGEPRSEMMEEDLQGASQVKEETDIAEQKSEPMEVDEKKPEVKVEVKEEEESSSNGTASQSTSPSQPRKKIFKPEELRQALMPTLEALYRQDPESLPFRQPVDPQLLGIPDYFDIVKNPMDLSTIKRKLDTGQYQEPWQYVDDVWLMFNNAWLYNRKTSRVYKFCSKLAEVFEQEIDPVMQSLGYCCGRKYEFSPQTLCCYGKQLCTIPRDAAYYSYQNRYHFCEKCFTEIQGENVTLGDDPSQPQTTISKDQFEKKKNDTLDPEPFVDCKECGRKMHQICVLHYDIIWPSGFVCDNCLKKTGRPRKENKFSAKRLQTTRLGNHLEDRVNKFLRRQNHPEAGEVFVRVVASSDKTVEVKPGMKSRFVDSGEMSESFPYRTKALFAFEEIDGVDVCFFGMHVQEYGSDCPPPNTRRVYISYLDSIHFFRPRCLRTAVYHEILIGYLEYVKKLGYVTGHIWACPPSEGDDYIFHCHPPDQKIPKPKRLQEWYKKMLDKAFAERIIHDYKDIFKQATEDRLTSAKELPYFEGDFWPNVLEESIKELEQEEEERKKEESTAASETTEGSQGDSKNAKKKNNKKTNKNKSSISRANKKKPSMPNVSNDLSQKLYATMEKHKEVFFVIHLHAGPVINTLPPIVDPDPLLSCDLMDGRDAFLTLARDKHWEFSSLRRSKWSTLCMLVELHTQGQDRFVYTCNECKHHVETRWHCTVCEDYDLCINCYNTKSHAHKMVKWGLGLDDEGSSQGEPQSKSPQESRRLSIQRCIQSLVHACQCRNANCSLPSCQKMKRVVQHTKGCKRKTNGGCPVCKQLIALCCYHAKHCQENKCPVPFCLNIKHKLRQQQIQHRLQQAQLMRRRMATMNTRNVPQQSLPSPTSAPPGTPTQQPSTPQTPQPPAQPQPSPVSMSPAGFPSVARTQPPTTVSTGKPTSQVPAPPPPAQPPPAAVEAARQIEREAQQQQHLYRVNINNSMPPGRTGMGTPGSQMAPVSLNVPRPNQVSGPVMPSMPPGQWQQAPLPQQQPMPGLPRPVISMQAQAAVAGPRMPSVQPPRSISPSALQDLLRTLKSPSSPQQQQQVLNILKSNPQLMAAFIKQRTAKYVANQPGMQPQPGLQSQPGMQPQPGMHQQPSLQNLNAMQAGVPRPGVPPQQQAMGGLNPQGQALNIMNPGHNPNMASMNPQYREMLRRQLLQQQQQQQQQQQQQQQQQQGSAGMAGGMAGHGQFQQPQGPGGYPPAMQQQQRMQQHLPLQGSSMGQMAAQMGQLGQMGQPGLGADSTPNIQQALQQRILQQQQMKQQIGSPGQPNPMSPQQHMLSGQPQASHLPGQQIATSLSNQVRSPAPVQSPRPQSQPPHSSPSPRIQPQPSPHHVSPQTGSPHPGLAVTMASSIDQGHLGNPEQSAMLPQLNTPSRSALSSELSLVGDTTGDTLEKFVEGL

Time [1]: 24 h | Papp A→B at 3 h, 10 µM [2]: 15 ×10⁻⁶ cm/s | inhibition [3]: Active | inhibition [4]: Active | IC50 (Cytochrome P450 3A4): > 10 µM | inhibition [5]: Active | inhibition [6]: Active | inhibition [7]: Active
Structure (SMILES): CC(=O)N1CCc2c(c(Nc3ccc(-c4cnn(C)c4)cc3F)nn2[C@@H]2CCOC2)C1
Activity (EJM): Active | Activity (THP2): Active | Activity (KMS-11): Active | Activity (Mus musculus): 7.4%
